The experiment deals with HT29 intrarenal xenograft, nude mice, tumor weight change. Description: NCI In Vivo Anticancer Drug Screen. Data for tumor model HT29;CX-1 Human Adenocarcinoma (MER+) (intrarenal inoculation) in NU/NU BALB/C (nude) mice. The conditions noted are these: endpoint: mean tumor weight change, higher = larger tumour. How it is done: The antitumor activity of compounds was measured in mice bearing transplantable tumors. Survival or tumor size were measured and the results are expressed as the measurement made in the treated group (T) divided by the measurement made in the vehicle treated control group (C). The tumor model used in this assay is HT29;CX-1 Human Adenocarcinoma (MER+) (intrarenal inoculation) in NU/NU BALB/C (nude) mice

Setting [1] is: dose: 16.0 mg/kg/injection, schedule: Q01DX010 (sc), vehicle: saline.
[2] abbreviates: dose: 600.0 mg/kg/injection, schedule: Q04DX004 (ip), vehicle: saline.
The mark [3] stands for this setting: dose: 200.0 mg/kg/injection, schedule: Q04DX004 (sc), vehicle: saline with Tween-80.
[4] abbreviates: dose: 150.0 mg/kg/injection, schedule: Q04DX004 (sc), vehicle: saline with Tween-80.
[5] abbreviates: dose: 300.0 mg/kg/injection, schedule: Q04DX004 (sc), vehicle: saline with Tween-80.
Setting [6] is: dose: 600.0 mg/kg/injection, schedule: Q04DX004 (sc), vehicle: saline with Tween-80.
The mark [7] stands for this setting: dose: 1200.0 mg/kg/injection, schedule: Q04DX004 (sc), vehicle: saline with Tween-80.
Setting [8] is: dose: 2400.0 mg/kg/injection, schedule: Q04DX004 (sc), vehicle: saline with Tween-80.

Values joined by “and” are separate entries in the source; they are usually repeats but may differ in a detail not shown here. Equal entries are not always repeated. Inconclusive results are not listed.

Consider `COc1cc([C@@H]2c3cc4c(cc3[C@@H](OC3OC5CO[C@@H](c6cccs6)OC5C(O)C3O)[C@H]3COC(=O)[C@H]23)OCO4)cc(OC)c1O` (some centres not stated), for which the T/C is 225 % of control (dose: 8.0 mg/kg/injection, schedule: Q01DX010 (sc), vehicle: saline); 221 % of control under setting [1]; 189 % of control (dose: 32.0 mg/kg/injection, schedule: Q01DX010 (sc), vehicle: saline); 191 % of control (dose: 33.0 mg/kg/injection, schedule: Q01DX010 (sc), vehicle: saline); 60 % of control (dose: 66.0 mg/kg/injection, schedule: Q01DX010 (sc), vehicle: saline); 151 % of control (dose: 132.0 mg/kg/injection, schedule: Q01DX010 (sc), vehicle: saline). Also, the T/C (dose: 264.0 mg/kg/injection, schedule: Q01DX010 (sc), vehicle: saline) is 38 % of control.

For `N#CC(=C1SCS1)[N+](=O)[O-]`, the T/C runs as follows: (dose: 3.0 mg/kg/injection, schedule: Q04DX004 (sc), vehicle: saline) 69 % of control; (dose: 6.0 mg/kg/injection, schedule: Q04DX004 (sc), vehicle: saline) 113 % of control.

For `C1OC1CO[C@@H]1CO[C@H]2[C@@H]1OC[C@H]2OCC1CO1` (some centres not stated), the T/C by setting is: (dose: 50.0 mg/kg/injection, schedule: Q01DX010 (sc), vehicle: saline with Tween-80) 121 % of control; (dose: 100.0 mg/kg/injection, schedule: Q01DX010 (sc), vehicle: saline with Tween-80) 64 % of control; (dose: 200.0 mg/kg/injection, schedule: Q01DX010 (sc), vehicle: saline with Tween-80) 103 % of control.

On to `NC1(C(=O)O)CCCC1`, for which the T/C (dose: 50.0 mg/kg/injection, schedule: Q01DX010 (sc), vehicle: saline) was 37 % of control and 40 % of control; the T/C (dose: 100.0 mg/kg/injection, schedule: Q01DX010 (sc), vehicle: saline) is 12 % of control and 22 % of control.

As to `Nc1nc(=O)n(C2OC(CO)C(O)C2O)cc1F` (configuration not stated), the T/C (dose: 300.0 mg/kg/injection, schedule: Q04DX004 (ip), vehicle: saline) was 66 % of control; the T/C under setting [2] was 64 % of control; the T/C (dose: 900.0 mg/kg/injection, schedule: Q04DX004 (ip), vehicle: saline) was 53 % of control; the T/C (dose: 1200.0 mg/kg/injection, schedule: Q04DX004 (ip), vehicle: saline) was 88 % of control.

Consider `N[C@@H](Cc1ccc(N(CCCl)CCCl)cc1)C(=O)O`, for which the T/C is 28 % of control (dose: 1.0 mg/kg/injection, schedule: Q01DX010 (sc), vehicle: saline) and 3 % of control (dose: 2.0 mg/kg/injection, schedule: Q01DX010 (sc), vehicle: saline).

`O=CC(O)C(O)C(O)C(O)CO` (configuration not stated): the T/C was 195 % of control (dose: 75.0 mg/kg/injection, schedule: Q04DX004 (ip), vehicle: saline); 164 % of control (dose: 150.0 mg/kg/injection, schedule: Q04DX004 (ip), vehicle: saline); 164 % of control under setting [2].

In the case of `Cc1c(N)nc(C(CC(N)=O)NCC(N)C(N)=O)nc1C(=O)NC(C(=O)NC(C)C(O)C(C)C(=O)NC(C(=O)NCCc1nc(-c2nc(C(=O)NCCCNC(C)c3ccccc3)cs2)cs1)C(C)O)C(OC1OC(CO)C(O)C(O)C1OC1OC(CO)C(O)C(OC(N)=O)C1O)c1cnc[nH]1` (configuration not stated), the T/C is 11 % of control (dose: 4.0 mg/kg/injection, schedule: Q01DX010 (sc), vehicle: saline) and 25 % of control under setting [1].

For the molecule `CNC=O`, the T/C (dose: 100.0 mg/kg/injection, schedule: Q01DX010 (ip), vehicle: saline) is 81 % of control; the T/C (dose: 200.0 mg/kg/injection, schedule: Q01DX010 (ip), vehicle: saline) was 64 % of control; the T/C (dose: 400.0 mg/kg/injection, schedule: Q01DX010 (ip), vehicle: saline) is -33 % of control.

As for `O=S(=O)(O)O.[NH-]C1CCCCC1[NH-].[Pt+2]` (configuration not stated), the T/C reads like this: (dose: 0.63 mg/kg/injection, schedule: Q01DX010 (sc), vehicle: dextrose) 124 % of control; (dose: 1.25 mg/kg/injection, schedule: Q01DX010 (sc), vehicle: dextrose) 83 % of control; (dose: 2.5 mg/kg/injection, schedule: Q01DX010 (sc), vehicle: dextrose) 73 % of control.

Regarding `NC(=S)N/N=C/c1ccc(O)cn1`, the T/C under setting [3] was 75 % of control.

`COC1(OC)C2C=CC1CC2`: the T/C under setting [4] is 114 % of control, the T/C under setting [5] was 72 % of control, the T/C under setting [6] is 123 % of control and the T/C under setting [7] is 197 % of control.

For the molecule `Cc1cc2cc3cc(C)c(N)cc3nc2cc1N`, the T/C runs as follows: under setting [6], 115 % of control; under setting [8], 77 % of control.

Turning to `O=C(Nc1cccc2c(OC(=O)C(Cl)Cl)c(N=Nc3ccc(S(=O)(=O)Nc4nccs4)cc3)cc(N=Nc3ccc(S(=O)(=O)Nc4nccs4)cc3)c12)C(Cl)Cl` (tested in a mixture with another compound), the T/C under setting [5] is 58 % of control, the T/C under setting [6] is 89 % of control, the T/C under setting [7] is 78 % of control and the T/C under setting [8] is 159 % of control.

In the case of `O=c1c(O)c(-c2cc(O)c(O)c(O)c2)oc2cc(O)cc(O)c12`, the T/C (dose: 1.5 mg/kg/injection, schedule: Q04DX004 (sc), vehicle: saline with Tween-80) is 105 % of control; the T/C (dose: 3.0 mg/kg/injection, schedule: Q04DX004 (sc), vehicle: saline with Tween-80) is 114 % of control; the T/C (dose: 6.0 mg/kg/injection, schedule: Q04DX004 (sc), vehicle: saline with Tween-80) was 107 % of control; the T/C (dose: 12.0 mg/kg/injection, schedule: Q04DX004 (sc), vehicle: saline with Tween-80) is 106 % of control; the T/C (dose: 50.0 mg/kg/injection, schedule: Q04DX004 (sc), vehicle: saline with Tween-80) is 63 % of control; the T/C (dose: 100.0 mg/kg/injection, schedule: Q04DX004 (sc), vehicle: saline with Tween-80) is 73 % of control. The T/C under setting [3] was 77 % of control and the T/C (dose: 400.0 mg/kg/injection, schedule: Q04DX004 (sc), vehicle: saline with Tween-80) was 103 % of control.

In the case of `C[C@]12CC[C@H](O)CC1=CC[C@@H]1[C@@H]2CC[C@]2(C)C(=O)CC[C@@H]12`, the T/C under setting [8] is 73 % of control.

With `COC1=C(OC)C(=O)C(SC/C=C(\C)CCCC(C)CCCC(C)CCCC(C)C)=CC1=O` (configuration not stated), the T/C is 97 % of control (dose: 300.0 mg/kg/injection, schedule: Q04DX004 (ip), vehicle: saline with Tween-80); 83 % of control (dose: 600.0 mg/kg/injection, schedule: Q04DX004 (ip), vehicle: saline with Tween-80); 88 % of control (dose: 1200.0 mg/kg/injection, schedule: Q04DX004 (ip), vehicle: saline with Tween-80).

As for `COc1cccc2c1C(=O)c1c(O)c3c(c(O)c1C2=O)CC(O)(C(=O)CO)CC3OC1CC(N)C(O)C(C)O1` (configuration not stated), the T/C by setting is: (dose: 37.5 mg/kg/injection, schedule: Q04DX004 (sc), vehicle: water) 32 % of control and 53 % of control; (dose: 75.0 mg/kg/injection, schedule: Q04DX004 (sc), vehicle: water) 111 % of control and 117 % of control; (dose: 300.0 mg/kg/injection, schedule: Q04DX004 (sc), vehicle: water) 55 % of control and 68 % of control.

With `C[CH2][Sn]([CH2]C)([O]S(C)(=O)=O)[O]S(C)(=O)=O`, the T/C is, setting by setting: (dose: 6.25 mg/kg/injection, schedule: Q04DX004 (sc), vehicle: saline with Tween-80) 169 % of control; (dose: 12.5 mg/kg/injection, schedule: Q04DX004 (sc), vehicle: saline with Tween-80) 107 % of control.

Take `NCCCNCCSP(=O)(O)O`: the T/C (dose: 200.0 mg/kg/injection, schedule: Q04DX004 (sc), vehicle: saline) was 102 % of control.

Regarding `CC1(C)OCC2OC=CC(=O)C2O1` (configuration not stated), the T/C by setting is: under setting [4], 111 % of control and 89 % of control; under setting [6], 82 % of control and 92 % of control.

These data come from PubChem BioAssay AID208 (DTP/NCI, 2004).
